According to patent US7166634B2, “Bis-indole pyrroles useful as antimicrobials agents” (Nereus Pharmaceuticals, Inc., priority 2004, dated 2007):
Where “and” joins values, the source holds several entries; their conditions need not be identical. Equal entries are not always repeated.

test system: S. epidermidis - ATCC 700578; assay: MIC, broth microdilution (NCCLS M7-A5); format: cell-based; parameters: Staph Epi 700578 MIC: unit not given here; conditions: Table 4; averages of 2 experiments, * single experiment; both values given when differing >2 fold
Description: (§1) Minimum inhibitory concentrations (MICs) are determined according to the National Committee for Clinical Laboratory Standards (NCCLS) susceptibility test guideline M7-A5 (Ferraro, M. 2001 Methods for Dilution Antimicrobial Susceptibility Tests for Bacteria that Grow Aerobically; Approved Standard (NCCLS). National Committee for Clinical Laboratory Standards (NCCLS), Villanova) to quantify the antimicrobial activity of the compounds of the present embodiment against various pathogenic bacteria. Susceptibility testing is performed by broth microdilution in accordance with National Committee for Clinical Laboratory Standards (NCCLS) guidelines. This procedure entails combining the test compounds with a standardized number of cells, incubating at the temperature and amount of time appropriate for each particular organism, and visually scoring the concentration at which no growth was apparent in the test wells. The panel includes both drug sensitive and drug resistant isolates of both gram-positive and gram-negative bacteria, including: S. aureus (both MSSA and MRSA), S. pneumoniae (wild type and penicillin-resistant), vancomycin-sensitive E. faecalis, vancomycin-resistant E. faecium, E. coli, H. influenzae and P. aeruginosa.
(§2) Susceptibility testing was performed by broth microdilution in accordance with National Committee for Clinical Laboratory Standards (NCCLS) guidelines. Antimicrobial data for compounds of Formulae II, III, IV, VI, VII, VIII, IX, XII, XIII, XIV, XV′, XV, XVI, XVII, XVIII, XXI′, XXII, XXIII, XXIV, and XXV are shown in Tables 3, 4 and 5.

Row | Compound | Staph Epi 700578 MIC
1 | O=C(O)c1[nH]cc(-c2c[nH]c3cc(Cl)c(Cl)cc23)c1-c1c[nH]c2ccc(Cl)cc12 [XII] | 3
2 | COC(=O)c1[nH]cc(-c2c[nH]c3cc(Cl)c(Cl)cc23)c1-c1c[nH]c2ncccc12 [XIV] | 8*
3 | COC(=O)c1[nH]c(C(=O)OC)c(-c2c[nH]c3cc(F)c(Cl)cc23)c1-c1c[nH]c2ccc(Cl)cc12 [XXII] | 2.5
4 | COC(=O)c1[nH]c(C(=O)OC)c(-c2c[nH]c3ccc(Cl)cc23)c1-c1c[nH]c2ccc(F)cc12 [XX] | 8

test system: E. faecalis - Van^s (VSE 29212); assay: MIC, broth microdilution (NCCLS M7-A5); format: cell-based; parameters: VSE 29212 MIC: unit not given here; conditions: Table 4; averages of 2 experiments, * single experiment; both values given when differing >2 fold
Description: as §1, §2

Row | Compound | VSE 29212 MIC
5 | O=C(O)c1[nH]cc(-c2c[nH]c3cc(Cl)c(Cl)cc23)c1-c1c[nH]c2ccc(Cl)cc12 [XII] | 8
6 | COC(=O)c1[nH]cc(-c2c[nH]c3cc(Cl)c(Cl)cc23)c1-c1c[nH]c2ncccc12 [XIV] | 12
7 | COC(=O)c1[nH]c(C(=O)OC)c(-c2c[nH]c3cc(F)c(Cl)cc23)c1-c1c[nH]c2ccc(Cl)cc12 [XXII] | 6
8 | COC(=O)c1[nH]c(C(=O)OC)c(-c2c[nH]c3ccc(Cl)cc23)c1-c1c[nH]c2ccc(F)cc12 [XX] | 24

test system: E. coli - imp; assay: MIC, broth microdilution (NCCLS M7-A5); format: cell-based; conditions: Table 5
Description: as §1, §2

Row | Compound | E. coli imp MIC
9 | O=C(O)c1[nH]cc(-c2c[nH]c3cc(Cl)c(Cl)cc23)c1-c1c[nH]c2ccc(Cl)cc12 [XII] | 20 µg/mL
10 | COC(=O)c1[nH]c(C(=O)OC)c(-c2c[nH]c3cc(F)c(Cl)cc23)c1-c1c[nH]c2ccc(Cl)cc12 [XXII] | >32 µg/mL
11 | COC(=O)c1[nH]c(C(=O)OC)c(-c2c[nH]c3ccc(Cl)cc23)c1-c1c[nH]c2ccc(F)cc12 [XX] | >32 µg/mL

test system: S. aureus - MSSA (29213); assay: MIC, broth microdilution (NCCLS M7-A5); format: cell-based; conditions: Table 4; averages of 2 experiments, * single experiment; both values given when differing >2 fold; in µg/mL
Description: as §1, §2

Row | Compound | MSSA 29213 MIC
12 | O=C(O)c1[nH]cc(-c2c[nH]c3cc(Cl)c(Cl)cc23)c1-c1c[nH]c2ccc(Cl)cc12 [XII] | 4
13 | COC(=O)c1[nH]cc(-c2c[nH]c3cc(Cl)c(Cl)cc23)c1-c1c[nH]c2ncccc12 [XIV] | 6
14 | COC(=O)c1[nH]c(C(=O)OC)c(-c2c[nH]c3cc(F)c(Cl)cc23)c1-c1c[nH]c2ccc(Cl)cc12 [XXII] | 1.25
15 | COC(=O)c1[nH]c(C(=O)OC)c(-c2c[nH]c3ccc(Cl)cc23)c1-c1c[nH]c2ccc(F)cc12 [XX] | 4

test system: S. aureus - MRSA (43300); assay: MIC, broth microdilution (NCCLS M7-A5); format: cell-based; conditions: Table 4; averages of 2 experiments, * single experiment; both values given when differing >2 fold; in µg/mL
Description: as §1, §2

Row | Compound | MRSA 43300 MIC
16 | O=C(O)c1[nH]cc(-c2c[nH]c3cc(Cl)c(Cl)cc23)c1-c1c[nH]c2ccc(Cl)cc12 [XII] | 6
17 | COC(=O)c1[nH]cc(-c2c[nH]c3cc(Cl)c(Cl)cc23)c1-c1c[nH]c2ncccc12 [XIV] | 6
18 | COC(=O)c1[nH]c(C(=O)OC)c(-c2c[nH]c3cc(F)c(Cl)cc23)c1-c1c[nH]c2ccc(Cl)cc12 [XXII] | 1.5
19 | COC(=O)c1[nH]c(C(=O)OC)c(-c2c[nH]c3ccc(Cl)cc23)c1-c1c[nH]c2ccc(F)cc12 [XX] | 5

test system: H. influenzae - ATCC 49766; assay: MIC, broth microdilution (NCCLS M7-A5); format: cell-based; conditions: Table 4 (MIC); averages of 2 experiments, * single experiment; both values given when differing >2 fold
Description: as §1, §2

Row | Compound | H. inf. 49766
20 | O=C(O)c1[nH]cc(-c2c[nH]c3cc(Cl)c(Cl)cc23)c1-c1c[nH]c2ccc(Cl)cc12 [XII] | 10
21 | COC(=O)c1[nH]cc(-c2c[nH]c3cc(Cl)c(Cl)cc23)c1-c1c[nH]c2ncccc12 [XIV] | >32*
22 | COC(=O)c1[nH]c(C(=O)OC)c(-c2c[nH]c3cc(F)c(Cl)cc23)c1-c1c[nH]c2ccc(Cl)cc12 [XXII] | 4
23 | COC(=O)c1[nH]c(C(=O)OC)c(-c2c[nH]c3ccc(Cl)cc23)c1-c1c[nH]c2ccc(F)cc12 [XX] | >32

test system: S. pneumoniae - penicillin resistant (51915); assay: MIC, broth microdilution (NCCLS M7-A5); format: cell-based; conditions: Table 4; averages of 2 experiments, * single experiment; both values given when differing >2 fold
Description: as §1, §2

Row | Compound | S. pneumo 51915 Pen R MIC
24 | COC(=O)c1[nH]c(C(=O)OC)c(-c2c[nH]c3ccc(Cl)cc23)c1-c1c[nH]c2ccc(F)cc12 [XX] | >32, 32

same assay, conditions: Table 4; averages of 2 experiments, * single experiment; both values given when differing >2 fold; in µg/mL

Row | Compound | S. pneumo 51915 Pen R MIC
25 | O=C(O)c1[nH]cc(-c2c[nH]c3cc(Cl)c(Cl)cc23)c1-c1c[nH]c2ccc(Cl)cc12 [XII] | >32
26 | COC(=O)c1[nH]cc(-c2c[nH]c3cc(Cl)c(Cl)cc23)c1-c1c[nH]c2ncccc12 [XIV] | 24*
27 | COC(=O)c1[nH]c(C(=O)OC)c(-c2c[nH]c3cc(F)c(Cl)cc23)c1-c1c[nH]c2ccc(Cl)cc12 [XXII] | 32

test system: S. pneumoniae - penicillin sensitive (49619); assay: MIC, broth microdilution (NCCLS M7-A5); format: cell-based; conditions: Table 4; averages of 2 experiments, * single experiment; both values given when differing >2 fold; in µg/mL
Description: as §1, §2

Row | Compound | S. pneumo 49619 Pen. S MIC
28 | O=C(O)c1[nH]cc(-c2c[nH]c3cc(Cl)c(Cl)cc23)c1-c1c[nH]c2ccc(Cl)cc12 [XII] | >32
29 | COC(=O)c1[nH]cc(-c2c[nH]c3cc(Cl)c(Cl)cc23)c1-c1c[nH]c2ncccc12 [XIV] | 32*
30 | COC(=O)c1[nH]c(C(=O)OC)c(-c2c[nH]c3cc(F)c(Cl)cc23)c1-c1c[nH]c2ccc(Cl)cc12 [XXII] | 32
31 | COC(=O)c1[nH]c(C(=O)OC)c(-c2c[nH]c3ccc(Cl)cc23)c1-c1c[nH]c2ccc(F)cc12 [XX] | 32

test system: H. influenzae - ATCC 49247; assay: MIC, broth microdilution (NCCLS M7-A5); format: cell-based; conditions: Table 4 (MIC); averages of 2 experiments, * single experiment; both values given when differing >2 fold
Description: as §1, §2

Row | Compound | H. inf. 49247
32 | O=C(O)c1[nH]cc(-c2c[nH]c3cc(Cl)c(Cl)cc23)c1-c1c[nH]c2ccc(Cl)cc12 [XII] | 8
33 | COC(=O)c1[nH]cc(-c2c[nH]c3cc(Cl)c(Cl)cc23)c1-c1c[nH]c2ncccc12 [XIV] | >32*

test system: E. faecium - Van^r (VRE 700221); assay: MIC, broth microdilution (NCCLS M7-A5); format: cell-based; conditions: Table 4; averages of 2 experiments, * single experiment; both values given when differing >2 fold
Description: as §1, §2

Row | Compound | VRE 700221 MIC
34 | COC(=O)c1[nH]c(C(=O)OC)c(-c2c[nH]c3cc(F)c(Cl)cc23)c1-c1c[nH]c2ccc(Cl)cc12 [XXII] | 16 and > 32

same assay, conditions: Table 4; averages of 2 experiments, * single experiment; both values given when differing >2 fold; in µg/mL

Row | Compound | VRE 700221 MIC
35 | O=C(O)c1[nH]cc(-c2c[nH]c3cc(Cl)c(Cl)cc23)c1-c1c[nH]c2ccc(Cl)cc12 [XII] | 8
36 | COC(=O)c1[nH]cc(-c2c[nH]c3cc(Cl)c(Cl)cc23)c1-c1c[nH]c2ncccc12 [XIV] | 6
37 | COC(=O)c1[nH]c(C(=O)OC)c(-c2c[nH]c3ccc(Cl)cc23)c1-c1c[nH]c2ccc(F)cc12 [XX] | >32

test system: S. epidermidis - ATCC 700582; assay: MIC, broth microdilution (NCCLS M7-A5); format: cell-based; parameters: Staph Epi 700582 MIC: unit not given here; conditions: Table 4; averages of 2 experiments, * single experiment; both values given when differing >2 fold
Description: as §1, §2

Row | Compound | Staph Epi 700582 MIC
38 | O=C(O)c1[nH]cc(-c2c[nH]c3cc(Cl)c(Cl)cc23)c1-c1c[nH]c2ccc(Cl)cc12 [XII] | 6
39 | COC(=O)c1[nH]cc(-c2c[nH]c3cc(Cl)c(Cl)cc23)c1-c1c[nH]c2ncccc12 [XIV] | 8*
40 | COC(=O)c1[nH]c(C(=O)OC)c(-c2c[nH]c3cc(F)c(Cl)cc23)c1-c1c[nH]c2ccc(Cl)cc12 [XXII] | 2
41 | COC(=O)c1[nH]c(C(=O)OC)c(-c2c[nH]c3ccc(Cl)cc23)c1-c1c[nH]c2ccc(F)cc12 [XX] | 8
